From patent publication US20240367095A1, “TERTIARY ALKANOLAMINE FOR GAS TREATING” (Dow Global Technologies LLC, priority 2021, published 2024)

assay: physchem

Row | SMILES | pKa
1 | CCCCN(CCO)CC(O)CO (stereo not shown) [HEBAPD] | 8.54
2 | CCN(CCO)CC(O)CO (stereo not shown) [HEEAPD] | 8.54
3 | CN(CCO)CC(O)CO (stereo not shown) [HEMAPD] | 8.45
4 | CCCN(CCO)CC(O)CO (stereo not shown) [HEPAPD] | 8.54

Next, values leading:

Row | pKa | SMILES
5 | 8.62 | CCN(CC(O)CO)C(C)CO (stereo not shown) [EHMEAPD, 3-[ethyl(2-hydroxy-1-methylethyl)amino]-1,2-propanediol]
6 | 8.53 | CC(CO)N(C)CC(O)CO (stereo not shown) [HMEMAPD, 3-[(2-hydroxy-1-methylethyl)methylamino]-1,2-propanediol]
7 | 8.53 | CCC(CO)N(C)CC(O)CO (stereo not shown) [HMPMAPD, 3-[[1-(hydroxymethyl)propyl]methylamino]-1,2-propanediol]
